Measurements from patent US9163020B2, “Azaindole compounds, synthesis thereof, and methods of using the same” (Global Alliance for TB Drug Development, priority 2013, dated 2015).
Converted amounts (≈) assume the structure as drawn. Where two headings read alike, the source gives them in different places.

Experiments:
Mtb DprE1 Y314H = type: cell-based, Mycobacterium tuberculosis
Mtb DprE1 C387S = type: cell-based, Mycobacterium tuberculosis
[1] = test system: Mycobacterium tuberculosis (Mtb) H37Rv ATCC 27294; test: microbe, parasite or virus in culture; type: cell-based; conditions: read-out: MIC, Mtb H37Rv
Mtb DprE1 C387G = type: cell-based, Mycobacterium tuberculosis
Mtb DprE1 OE = test: microbe, parasite or virus in culture; type: cell-based, Mycobacterium tuberculosis
[2] = Mycobacterium tuberculosis, DPRE1OE, read-out: MIC, Mtb DprE1 OE
[3] = Mycobacterium tuberculosis, DPRE1OE, Table 5, read-out: Mtb DprE1 OE MIC

Row | Compound | MIC, Mtb DprE1 Y314H (Mtb DprE1 Y314H) | MIC, Mtb DprE1 C387S (Mtb DprE1 C387S) | MIC [1] | MIC, Mtb DprE1 C387G (Mtb DprE1 C387G) | MIC (Mtb DprE1 OE; read-out: MIC, Mtb DprE1 OE) | MIC ([1]; Mycobacterium tuberculosis) | MIC (Mtb DprE1 OE; [2]) | Mtb DprE1 Y314H MIC (Mtb DprE1 Y314H) | Mtb DprE1 C387S (Mtb DprE1 C387S) | Mtb DprE1 C387G MIC (Mtb DprE1 C387G) | MIC (Mtb DprE1 OE; [3]) | cross-resistance to mutant strain (Tyr314His) (Mtb DprE1 Y314H)
1 | Clofazimine | 0.125 µM | 0.03 µM | 0.125 µM | 0.03 µM | 0.06 µM | – | – | – | – | – | – | –
2 | COc1ncnc(Cn2cc(C(=O)NCCF)c3ncc(C)cc32)c1C [Compound 8, N-(2-fluoroethyl)-1-((6-methoxy-5-methylpyrimidin-4-yl)methyl)-6-methyl-1H-pyrrolo[3,2-b]pyridine-3-carboxamide] | >200 µM | 0.39 µM (≈ 0.139 µg/mL) | – | 0.39 µM (≈ 0.139 µg/mL) | – | 0.39 µM (≈ 0.139 µg/mL) | 6.25 µM (≈ 2.23 µg/mL) | – | – | – | – | –
3 | CO[C@H]1/C=C/O[C@@]2(C)Oc3c(C)c(O)c4c(O)c(c(/C=N/N5CCN(C)CC5)c(O)c4c3C2=O)NC(=O)/C(C)=C\C=C\[C@H](C)[C@H](O)[C@@H](C)[C@@H](O)[C@@H](C)[C@H](OC(C)=O)[C@@H]1C [Rifampicin] | – | – | – | – | – | – | 0.003 µM (≈ 0.00247 µg/mL) | – | – | – | – | –
4 | CC1COc2c(N3CCN(C)CC3)c(F)cc3c(=O)c(C(=O)O)cn1c23 (centres unmarked) [Ofloxacin, reference compound] | – | – | – | – | – | 1 µM (≈ 0.361 µg/mL) | 0.5 µM (≈ 0.181 µg/mL) | – | – | – | – | –
5 | COc1ncnc(Cn2cc(C(=O)NCCO)c3ncc(C)cc32)c1C [Compound 17, N-(2-hydroxyethyl)-1-((6-methoxy-5-methylpyrimidin-4-yl)methyl)-6-methyl-1H-pyrrolo[3,2-b]pyridine-3-carboxamide] | >200 µM | 0.39 µM (≈ 0.139 µg/mL) | – | 0.78 µM (≈ 0.277 µg/mL) | – | 1.56 µM (≈ 0.554 µg/mL) | 100 µM (≈ 35.5 µg/mL) | – | – | – | – | –
6 | COc1c(N2C[C@@H]3CCCN[C@@H]3C2)c(F)cc2c(=O)c(C(=O)O)cn(C3CC3)c12 [Moxifloxacin, reference compound] | – | – | – | – | – | 0.125 µM (≈ 0.0502 µg/mL) | 0.06 µM (≈ 0.0241 µg/mL) | – | – | – | – | –
7 | Cc1ccc(Cn2cc(C(=O)NCCF)c3ncccc32)c(C)c1 [Compound 31, 1-(2,4-dimethylbenzyl)-N-(2-fluoroethyl)-1H-pyrrolo[3,2-b]pyridine-3-carboxamide] | – | – | – | – | – | – | – | 25 µM | 0.78 µM | 0.78 µM | 25 µM (≈ 8.13 µg/mL) | –
8 | COc1ncnc(Cn2cc(C(=O)NCCF)c3ncccc32)c1C [Compound 3, N-(2-fluoroethyl)-1-((6-methoxy-5-methylpyrimidin-4-yl)methyl)-1H-pyrrolo[3,2-b]pyridine-3-carboxamide] | >100 µM | 3.12 µM (≈ 1.07 µg/mL) | 3.12 µM (≈ 1.07 µg/mL) | 0.78 µM (≈ 0.268 µg/mL) | – | – | 50 µM (≈ 17.2 µg/mL) | – | – | – | – | –
9 | CC[C@@H](CO)NCCN[C@@H](CC)CO [Ethambutol] | 2.0 to 4.0 µM | 2 µM (≈ 0.409 µg/mL) | – | 4 µM (≈ 0.817 µg/mL) | – | 2 µM (≈ 0.409 µg/mL) | 2 µM (≈ 0.409 µg/mL) | – | – | – | – | –
10 | NNC(=O)c1ccncc1 [Isoniazid] | 0.06 µM (≈ 0.00823 µg/mL) | 0.06 µM (≈ 0.00823 µg/mL) | – | 0.06 µM (≈ 0.00823 µg/mL) | – | 0.06 µM (≈ 0.00823 µg/mL) | 0.03 µM (≈ 0.00411 µg/mL) | – | – | – | – | –
11 | D-cycloserine | 8.0 to 16.0 µM | 8 µM | 8 µM | 8 µM | 8 µM | – | – | – | – | – | – | –
12 | COc1nc2ccc(Br)cc2cc1[C@@H](c1ccccc1)[C@@](O)(CCN(C)C)c1cccc2ccccc12 [TMC207] | 0.15 to 0.3 µM | 0.3 µM (≈ 0.167 µg/mL) | – | 0.15 µM (≈ 0.0833 µg/mL) | – | 0.6 µM (≈ 0.333 µg/mL) | 0.15 µM (≈ 0.0833 µg/mL) | – | – | – | – | –
13 | COc1cccc(F)c1Cn1cc(C(=O)NCC2CC2)c2ncccc21 [Compound 32, N-(cyclopropylmethyl)-1-(2-fluoro-6-methoxybenzyl)-1H-pyrrolo[3,2-b]pyridine-3-carboxamide] | – | – | – | – | – | – | – | 200 µM | 0.39 µM | 0.39 µM | 50 µM (≈ 17.7 µg/mL) | –
14 | C[C@H]1COC2(CCN(c3nc(=O)c4cc(C(F)(F)F)cc([N+](=O)[O-])c4s3)CC2)O1 [BTZ043] | 0.0015 to 0.003 µM | >0.1 µM | 0.003 µM (≈ 0.00129 µg/mL) | >0.1 µM | – | – | 50 µM (≈ 21.6 µg/mL) | – | – | – | – | resistance was not observed
